Measured values from patent US10526322B2, “Inhibitors of kidney-type glutaminase, GLS-1” (CORNELL UNIVERSITY, priority 2014, dated 2020).
Substitutions are numbered along the chain they refer to.

Key:
[1] = biological target: T1, monomeric GAC (D391K, K316E, R459E) (Mus musculus, UniProt D3Z7P3, D391K/K316E/R459E); experiment: 968 binding to GAC mutants, quenching of 488 fluorescence; conditions: 10 nM total monomer
T1 construct: (residues 72-603) was cloned into a pET23a vector; His-tag with thrombin cleavage site (N); made in house
T1 sequence (D3Z7P3 72-603 isoform D3Z7P3-2 K316E/D391K/R459E): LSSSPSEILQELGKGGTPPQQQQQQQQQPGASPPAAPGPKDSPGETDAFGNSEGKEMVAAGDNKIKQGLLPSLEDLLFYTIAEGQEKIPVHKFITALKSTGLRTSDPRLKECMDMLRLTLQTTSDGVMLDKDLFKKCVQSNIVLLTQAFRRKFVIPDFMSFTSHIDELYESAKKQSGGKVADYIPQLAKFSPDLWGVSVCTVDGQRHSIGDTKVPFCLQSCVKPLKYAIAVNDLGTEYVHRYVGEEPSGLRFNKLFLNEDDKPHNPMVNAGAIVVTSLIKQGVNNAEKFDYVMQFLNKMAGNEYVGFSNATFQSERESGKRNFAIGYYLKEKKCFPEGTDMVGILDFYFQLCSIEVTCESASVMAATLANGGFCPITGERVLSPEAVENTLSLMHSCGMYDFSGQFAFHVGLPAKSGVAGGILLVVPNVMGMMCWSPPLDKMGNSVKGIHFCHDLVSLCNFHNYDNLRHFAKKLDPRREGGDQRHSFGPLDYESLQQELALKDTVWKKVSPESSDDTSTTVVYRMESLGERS
Method: Real-time fluorescence monitoring of 968 binding and GAC activity through production of NADH was performed on a Varian Cary Eclipse Fluorometer, whereas small molecule inhibition and binding titrations were performed in a 96-well format in a Tecan Saphire absorbance and fluorescence plate reader. Samples for monitoring real-time binding of 968 to 488-GAC were prepared by adding 10 μL of varying concentrations of 968 prepared in DMSO to an equilibrated 1 mL sample of 10 nM 488-GAC, while observing 488 fluorescence (490 nm excitation/520 nm emission). […] WT GAC (10 nM) was added and allowed to equilibrate 2 minutes before monitoring the fluorescence emission of 488-GAC (490 nm excitation, 520 nm emission) and NADH (340 nm excitation, 490 nm emission). […] The activity of GAC was measured in a coupled assay, by monitoring the NADH produced by glutamate dehydrogenase, which converts the product of the glutaminase-catalyzed reaction, glutamate, to α-ketoglutarate and ammonia by reducing NAD+ to NADH. Because solutions containing glutamine undergo non-enzymatic degradation to glutamate, samples were further analyzed by […] under identical experimental conditions. […]

WT GAC = biological target: T2, WT GAC (Mus musculus, UniProt D3Z7P3); experiment: In vitro photo cross linking of SU-22 and purification of the conjugate; format: binding; conditions: 100 nM WT GAC, 10 μM SU-22, UV, A350/A280
T2 construct: (residues 72-603) was cloned into a pET23a vector; made in house
T2 sequence (D3Z7P3 72-603 isoform D3Z7P3-2): T1 sequence (D3Z7P3 72-603 isoform D3Z7P3-2 K316E/D391K/R459E) with E245K, K320D, E388R
Method: Conditions of in vitro cross linking of WT GAC, and the K316E/D391K/R459E GAC mutant were adapted for efficient cross linking and purification of the cross linked protein product. WT GAC and the K316E/D391K/R459E GAC mutant, both containing the N-terminal His-tag, were diluted to a concentration of 100 nM in 20 mM Tris-HCl (pH=8.6) 100 mM NaCl, upon which 10 μM of SU-22 was added. Following a preincubation time of 5 minutes, samples were exposed to UV light under a hand held 500 W UV lamp to initiate the photo cross linking. Immediately following, bovine serum albumin (BSA, Sigma) was added to a final concentration of 2 mg/mL to help stabilize the cross linked product and to bind excess un-reacted SU-22. To isolate the cross linked product, 2.5 mg cobalt agarose beads (Clontech) were added and the solution was gravity filtered. […] The purified cross linked protein was then concentrated using spin columns with a 30 kD molecular weight cutoff and quantified using UV-vis spectroscopy, where the protein was quantified using the A280 (ε280=38,850 M−1 cm−1) and the cross-linked SU-22 using the A350 (ε350=18,900 M−1 cm−1). […]

Compound	affinity for 968 compared with WT 488-GAC and dimeric GAC (D391K) [1]	ratio of cross linked SU-22 to protein (WT GAC)
CN(C)c1ccc(C2Nc3ccc4ccccc4c3C3=C2C(=O)CC(C)(C)C3)cc1Br (centres unmarked) [Compound 968]	highest affinity	–
CC1(C)CC(=O)C2=C(C1)c1c(ccc3cc4ccccc4cc13)NC2c1ccc(N=[N+]=[N-])cc1 (centres unmarked) [SU-22]	–	0.52
